Results reported in patent US20090181952A1 (Wyeth, priority 2008, published 2009).
Like-named read-outs stand apart in the source and are kept apart here.

Legend:
[1] = target: T1, rat-alpha7-nAChR (Rattus norvegicus, UniProt Q05941); experiment: functional FLIPR assay, alpha7 nAChR stably expressed in GH4C1 cells; type: cell-based
T1 construct: expressed in transfected cells

[2] = metabolite profile in rat plasma by LC/MS; type: in vivo; details: rat plasma after single 6.7 or 20.5 mg/kg IV dose of parent
Description: (§1) Rat plasma samples from single 6.7 mg/kg IV at 0, 10 min and 20.5 mg/kg IV at 0, 0.5, 4 hr post dosing; dog plasma samples from single 1.5 mg/kg IV at 0, 0.167, 1, 6 hr and 7.6 mg/kg PO at 0, 0.5, 2, 6 hr post dosing were analyzed by LC/MS. A standard of the parent compound was analyzed by LC/MS and there was no impurity detected.
In rat plasma, a compound of formula I was the predominant compound-related material while metabolites were detected at very low levels. […] (See FIGS. 1 and 2; for compound I′ n=1, R^1=methyl, and R^2═H)

[3] = metabolite profile in dog plasma by LC/MS; type: in vivo; details: dog plasma after single […] IV or 7.6 mg/kg PO dose of parent
Description: as §1

[4] = functional FLIPR primary screening assay, GH4C1 cell line expressing α7 nAChR, read-out: Alpha7 EC50

T1 sequence (Q05941 23-502): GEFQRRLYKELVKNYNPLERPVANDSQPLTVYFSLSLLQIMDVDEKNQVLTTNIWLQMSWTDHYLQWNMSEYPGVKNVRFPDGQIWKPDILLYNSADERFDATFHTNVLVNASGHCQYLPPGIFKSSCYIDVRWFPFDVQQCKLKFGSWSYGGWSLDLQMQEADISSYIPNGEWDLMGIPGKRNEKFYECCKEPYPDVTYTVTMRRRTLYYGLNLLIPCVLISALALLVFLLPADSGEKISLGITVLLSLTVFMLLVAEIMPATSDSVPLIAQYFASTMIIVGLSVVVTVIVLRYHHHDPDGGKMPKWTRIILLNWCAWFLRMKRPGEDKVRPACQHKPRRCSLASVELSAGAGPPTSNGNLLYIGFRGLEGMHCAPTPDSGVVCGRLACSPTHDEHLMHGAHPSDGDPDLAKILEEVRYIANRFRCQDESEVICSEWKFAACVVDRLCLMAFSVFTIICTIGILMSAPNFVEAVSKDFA

SMILES	EC50 [1, 4] [nM]	compound-related material detected in rat plasma [2]	also measured
CC(=O)N1CCCC(CCCCC(=O)Nc2cc(-c3ccc(O)cc3)[nH]n2)CC1 (stereo not drawn)	1000	–	–
COc1ccc(C2CC(NC(=O)CCCCN3CCCNCC3)NN2)cc1 (stereo not drawn)	6900	–	–
C[N+]1(C)CCN(c2ccccc2)CC1 [DMPP, reference compound]	–	–	EC50 ([1]; alpha7 nAChR stably expressed in GH4C1 cells, functional FLIPR assay, agonist validation, read-out: EC50): 980 ± 470 nM

More lines, main results first:

EC50 [1, 4] [nM]	compound-related material detected in rat plasma [2]	SMILES	also measured
–	detected as metabolites	CC(=O)N1CCCN(CCCCC(=O)Nc2cc(-c3ccc(O)cc3)n[nH]2)CC1 [Compound I-1]	compound-related material detected in dog plasma [3]: very minor metabolite
–	detected as metabolites	CC(=O)N1CCCN(CCCCC(=O)Nc2cc(-c3ccc(OS(=O)(=O)O)cc3)[nH]n2)CC1 [Compound I-2]	–
